Laboratory results from ChEMBL document CHEMBL3585305, “Structure-Based Design and Optimization of Multitarget-Directed 2H-Chromen-2-one Derivatives as Potent Inhibitors of Monoamine Oxidase B and Cholinesterases” (J Med Chem, 2015).
Active and inactive are the calls of the source. The calls are words filed in the database; no cut-off is given here.

Experiments:
Rattus norvegicus = organism: Rattus norvegicus; experiment: Selectivity index, ratio of IC50 for rat brain MAO-A to IC50 for rat brain MAO-B
[1] = molecular target: T1, Amine oxidase [flavin-containing] B (Homo sapiens, UniProt P27338)
T1 sequence (P27338 whole entry): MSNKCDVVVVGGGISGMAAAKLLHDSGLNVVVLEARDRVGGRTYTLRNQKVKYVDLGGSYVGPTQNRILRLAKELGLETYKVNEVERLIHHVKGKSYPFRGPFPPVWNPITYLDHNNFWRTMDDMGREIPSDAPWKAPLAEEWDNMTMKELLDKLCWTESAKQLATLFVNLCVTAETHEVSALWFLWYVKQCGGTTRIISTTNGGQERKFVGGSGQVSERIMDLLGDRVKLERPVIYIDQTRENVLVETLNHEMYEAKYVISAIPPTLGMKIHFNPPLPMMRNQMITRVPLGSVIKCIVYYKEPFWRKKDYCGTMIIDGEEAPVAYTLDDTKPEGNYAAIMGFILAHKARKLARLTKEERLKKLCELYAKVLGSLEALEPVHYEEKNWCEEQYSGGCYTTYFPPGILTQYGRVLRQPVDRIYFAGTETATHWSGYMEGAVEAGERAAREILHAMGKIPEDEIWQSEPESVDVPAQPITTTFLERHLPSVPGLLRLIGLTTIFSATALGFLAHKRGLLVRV
Description: Inhibition of human recombinant MAO-B using kynuramine substrate by spectrophotometric assay

[2] = molecular target: T2, Amine oxidase [flavin-containing] A (Rattus norvegicus, UniProt P21396); experiment: Inhibition of rat brain MAO-A using kynuramine substrate […] by spectrophotometric assay
T2 sequence (P21396 whole entry): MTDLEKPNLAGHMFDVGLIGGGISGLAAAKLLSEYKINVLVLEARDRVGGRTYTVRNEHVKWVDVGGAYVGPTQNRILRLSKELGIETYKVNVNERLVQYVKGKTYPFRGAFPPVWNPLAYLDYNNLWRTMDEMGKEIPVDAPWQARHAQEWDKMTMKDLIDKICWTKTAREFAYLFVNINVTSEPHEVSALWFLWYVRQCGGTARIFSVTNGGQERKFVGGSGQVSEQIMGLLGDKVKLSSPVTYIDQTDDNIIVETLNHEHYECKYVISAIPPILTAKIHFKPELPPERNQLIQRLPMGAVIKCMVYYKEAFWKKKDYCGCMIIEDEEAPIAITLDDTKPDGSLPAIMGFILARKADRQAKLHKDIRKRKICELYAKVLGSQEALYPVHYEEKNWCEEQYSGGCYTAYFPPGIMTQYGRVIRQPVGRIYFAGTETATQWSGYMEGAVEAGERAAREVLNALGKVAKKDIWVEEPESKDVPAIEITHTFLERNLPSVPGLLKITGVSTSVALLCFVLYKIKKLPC

Acetylcholinesterase [3] = molecular target: T3, Acetylcholinesterase (Electrophorus electricus, UniProt O42275); experiment: Inhibition of electric eel AChE by spectrophotometric Ellman's method
[4] = molecular target: T4, Amine oxidase [flavin-containing] A (Homo sapiens, UniProt P21397); experiment: Inhibition of human recombinant MAO-A using kynuramine substrate by spectrophotometric assay
T4 sequence (P21397 whole entry): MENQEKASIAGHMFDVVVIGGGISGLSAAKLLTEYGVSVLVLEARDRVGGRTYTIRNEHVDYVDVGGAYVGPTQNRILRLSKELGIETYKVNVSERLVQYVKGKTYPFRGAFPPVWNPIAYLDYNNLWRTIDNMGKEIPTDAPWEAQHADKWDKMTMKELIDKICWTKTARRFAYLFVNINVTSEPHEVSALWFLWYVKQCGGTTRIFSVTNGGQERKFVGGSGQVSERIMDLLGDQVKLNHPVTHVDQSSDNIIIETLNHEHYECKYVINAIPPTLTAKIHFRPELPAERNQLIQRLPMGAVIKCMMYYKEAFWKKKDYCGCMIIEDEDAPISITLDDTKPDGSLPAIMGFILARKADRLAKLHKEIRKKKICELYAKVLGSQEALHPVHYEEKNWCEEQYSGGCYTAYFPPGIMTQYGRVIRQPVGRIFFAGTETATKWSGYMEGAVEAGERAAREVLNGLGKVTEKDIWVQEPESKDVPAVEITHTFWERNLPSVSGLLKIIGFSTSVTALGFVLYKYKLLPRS

Acetylcholinesterase [5] = molecular target: Acetylcholinesterase (Homo sapiens, UniProt P22303); experiment: Inhibition of human recombinant AChE by spectrophotometric Ellman's method
[6] = molecular target: T5, Amine oxidase [flavin-containing] B (Rattus norvegicus, UniProt P19643); experiment: Inhibition of rat brain MAO-B using kynuramine substrate […] by spectrophotometric assay
T5 sequence (P19643 whole entry): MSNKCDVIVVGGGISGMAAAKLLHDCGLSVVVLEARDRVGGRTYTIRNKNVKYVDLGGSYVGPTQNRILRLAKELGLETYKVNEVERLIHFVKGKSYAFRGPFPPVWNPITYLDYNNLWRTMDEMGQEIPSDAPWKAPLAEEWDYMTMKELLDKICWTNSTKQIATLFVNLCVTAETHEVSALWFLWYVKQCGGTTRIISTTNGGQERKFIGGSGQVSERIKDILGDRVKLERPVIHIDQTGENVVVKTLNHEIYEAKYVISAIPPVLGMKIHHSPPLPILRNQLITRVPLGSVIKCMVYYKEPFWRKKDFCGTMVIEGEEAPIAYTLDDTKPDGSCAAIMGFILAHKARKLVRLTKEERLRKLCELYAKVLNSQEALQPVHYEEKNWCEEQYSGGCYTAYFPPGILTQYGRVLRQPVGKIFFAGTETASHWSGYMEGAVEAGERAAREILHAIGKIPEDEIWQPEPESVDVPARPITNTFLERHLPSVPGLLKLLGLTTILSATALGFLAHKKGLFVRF

Cholinesterase [7] = molecular target: Cholinesterase (Equus caballus, UniProt P81908); experiment: Inhibition of equine serum BuChE by spectrophotometric Ellman's method
[8] = molecular target: T2, Amine oxidase [flavin-containing] A; experiment: Inhibition of rat brain MAO-A using kynuramine substrate […] at 10 uM by spectrophotometric assay
[9] = molecular target: T4, Amine oxidase [flavin-containing] A; experiment: Inhibition of human recombinant MAO-A using kynuramine substrate at 4 uM by spectrophotometric assay
[10] = molecular target: T5, Amine oxidase [flavin-containing] B; experiment: Inhibition of rat brain MAO-B using kynuramine substrate […] at 10 uM by spectrophotometric assay
SH-SY5Y [11] = experiment: Neuroprotective activity in human SH-SY5Y cells assessed as inhibition H2O2-induced reduction of cell survival at 10 uM after 24 hrs by MTT assay; assay type: functional, cell-based
SH-SY5Y [12] = experiment: Neuroprotective activity in human SH-SY5Y cells assessed as inhibition H2O2-induced reduction of cell survival at 1 uM after 24 hrs by MTT assay; assay type: functional, cell-based
MDR1 [13] = experiment: Apparent permeability from basolateral to apical side in MDCK2 cells expressing MDR1 at 200 ug/ml by UV-visible spectroscopy; assay type: ADME, cell-based, Canis lupus familiaris, MDCK-II; settings: dog, MDCK-MDR1
MDR1 [14] = experiment: Efflux ratio of apparent permeability from basolateral to apical side to apical to basolateral side in MDCK2 cells expressing MDR1 at 200 ug/ml by UV-visible spectroscopy; assay type: ADME, cell-based, Canis lupus familiaris, MDCK-II; settings: dog, MDCK-MDR1
MDR1 [15] = experiment: Apparent permeability from apical to basolateral side in MDCK2 cells expressing MDR1 at 200 ug/ml by UV-visible spectroscopy; assay type: ADME, cell-based, Canis lupus familiaris, MDCK-II; settings: dog, MDCK-MDR1
Cholinesterase [16] = molecular target: T6, Cholinesterase (Homo sapiens, UniProt P06276); experiment: Inhibition of human serum BuChE by spectrophotometric Ellman's method
[17] = molecular target: T4, Amine oxidase [flavin-containing] A; experiment: Inhibition of human recombinant MAO-A using kynuramine substrate at 10 uM by spectrophotometric assay
[18] = molecular target: T1, Amine oxidase [flavin-containing] B; experiment: Inhibition of human recombinant MAO-B using kynuramine substrate at 10 uM by spectrophotometric assay
Cholinesterase [19] = molecular target: T6, Cholinesterase; experiment: Inhibition of human serum BuChE at 10 uM by spectrophotometric Ellman's method
Acetylcholinesterase [20] = molecular target: T3, Acetylcholinesterase; experiment: Mixed type inhibition of electric eel AChE by Lineweaver-Burk plot

T3 sequence (O42275 whole entry): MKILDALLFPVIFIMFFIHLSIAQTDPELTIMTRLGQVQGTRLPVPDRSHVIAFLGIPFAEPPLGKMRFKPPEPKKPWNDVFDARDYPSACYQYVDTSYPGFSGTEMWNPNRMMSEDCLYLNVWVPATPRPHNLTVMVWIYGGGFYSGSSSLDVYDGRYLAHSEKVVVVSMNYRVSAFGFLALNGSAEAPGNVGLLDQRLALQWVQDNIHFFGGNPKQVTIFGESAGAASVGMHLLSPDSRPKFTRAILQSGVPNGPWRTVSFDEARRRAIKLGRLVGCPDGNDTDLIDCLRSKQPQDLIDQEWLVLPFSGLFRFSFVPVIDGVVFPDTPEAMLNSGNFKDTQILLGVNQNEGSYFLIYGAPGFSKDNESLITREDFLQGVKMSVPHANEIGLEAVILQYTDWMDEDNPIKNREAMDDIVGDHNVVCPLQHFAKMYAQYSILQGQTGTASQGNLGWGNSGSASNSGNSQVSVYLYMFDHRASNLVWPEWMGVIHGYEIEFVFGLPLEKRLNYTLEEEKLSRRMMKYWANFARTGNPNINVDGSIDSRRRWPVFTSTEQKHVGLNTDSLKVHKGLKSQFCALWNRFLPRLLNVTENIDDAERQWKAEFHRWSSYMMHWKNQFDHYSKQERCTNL
Chain of Cholinesterase (Equus caballus, UniProt P81908) (P81908 whole entry): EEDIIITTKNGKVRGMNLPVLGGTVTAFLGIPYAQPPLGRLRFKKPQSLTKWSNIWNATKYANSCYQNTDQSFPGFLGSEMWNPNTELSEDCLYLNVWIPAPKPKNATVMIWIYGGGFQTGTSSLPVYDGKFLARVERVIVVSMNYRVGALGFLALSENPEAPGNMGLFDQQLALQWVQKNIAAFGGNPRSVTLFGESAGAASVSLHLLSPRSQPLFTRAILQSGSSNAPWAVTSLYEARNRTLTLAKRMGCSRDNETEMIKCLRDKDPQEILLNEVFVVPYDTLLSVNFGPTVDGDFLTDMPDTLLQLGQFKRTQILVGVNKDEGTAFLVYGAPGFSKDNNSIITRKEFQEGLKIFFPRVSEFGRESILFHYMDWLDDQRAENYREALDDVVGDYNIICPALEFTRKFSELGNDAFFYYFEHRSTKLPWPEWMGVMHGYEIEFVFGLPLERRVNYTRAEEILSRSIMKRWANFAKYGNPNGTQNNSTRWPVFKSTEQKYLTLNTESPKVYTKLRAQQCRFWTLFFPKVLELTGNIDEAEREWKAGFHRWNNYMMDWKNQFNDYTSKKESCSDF
T6 sequence (P06276 whole entry): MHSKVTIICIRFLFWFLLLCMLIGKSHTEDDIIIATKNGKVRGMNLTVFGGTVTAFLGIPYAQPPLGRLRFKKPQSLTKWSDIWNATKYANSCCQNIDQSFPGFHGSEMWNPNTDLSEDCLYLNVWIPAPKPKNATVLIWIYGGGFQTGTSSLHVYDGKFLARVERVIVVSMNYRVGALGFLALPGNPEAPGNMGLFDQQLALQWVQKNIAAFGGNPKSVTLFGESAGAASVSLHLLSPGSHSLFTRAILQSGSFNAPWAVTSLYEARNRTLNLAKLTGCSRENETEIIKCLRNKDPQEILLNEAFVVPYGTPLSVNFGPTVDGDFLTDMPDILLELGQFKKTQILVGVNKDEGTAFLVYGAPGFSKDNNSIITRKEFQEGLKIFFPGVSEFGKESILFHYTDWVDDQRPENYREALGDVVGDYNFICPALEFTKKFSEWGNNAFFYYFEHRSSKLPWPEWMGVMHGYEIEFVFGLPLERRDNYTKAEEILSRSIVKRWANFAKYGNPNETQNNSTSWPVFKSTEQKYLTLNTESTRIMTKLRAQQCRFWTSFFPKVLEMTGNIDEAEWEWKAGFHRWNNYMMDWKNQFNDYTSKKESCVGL
Chain of Acetylcholinesterase (Homo sapiens, UniProt P22303) (P22303 whole entry): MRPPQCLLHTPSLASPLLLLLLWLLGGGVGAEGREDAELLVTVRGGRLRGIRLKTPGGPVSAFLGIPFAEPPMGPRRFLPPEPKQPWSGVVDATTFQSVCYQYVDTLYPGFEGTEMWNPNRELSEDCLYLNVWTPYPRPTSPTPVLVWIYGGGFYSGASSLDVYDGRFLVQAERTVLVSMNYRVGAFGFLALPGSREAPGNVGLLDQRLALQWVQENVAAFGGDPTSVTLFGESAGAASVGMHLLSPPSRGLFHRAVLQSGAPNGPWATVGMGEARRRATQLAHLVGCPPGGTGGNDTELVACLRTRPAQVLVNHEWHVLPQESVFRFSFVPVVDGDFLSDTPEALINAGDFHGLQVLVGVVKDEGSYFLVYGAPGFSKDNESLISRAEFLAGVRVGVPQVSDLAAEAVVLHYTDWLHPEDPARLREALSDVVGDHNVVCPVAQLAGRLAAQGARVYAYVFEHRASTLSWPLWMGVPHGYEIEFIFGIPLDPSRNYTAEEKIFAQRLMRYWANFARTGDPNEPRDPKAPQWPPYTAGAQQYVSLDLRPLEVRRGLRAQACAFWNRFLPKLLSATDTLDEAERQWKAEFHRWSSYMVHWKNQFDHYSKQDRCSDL

| Compound | IC50 [1] | IC50 [2] | IC50 (Acetylcholinesterase [3]) | IC50 [4] | IC50 (Acetylcholinesterase [5]) | IC50 [6] | IC50 (Cholinesterase [7]) | inhibition at 10 µM [8] | also measured |
| --- | --- | --- | --- | --- | --- | --- | --- | --- | --- |
| CCN(CCCCCCOc1ccc2c(C)c(C)c(=O)oc2c1)Cc1ccccc1 | 18 nM | 2100 nM | 320 nM | 115 nM | 440 nM | 720 nM | 490 nM |  | Ratio IC50 (Rattus norvegicus): 3 |
| CN(Cc1ccccc1)Cc1ccc(COc2ccc3ccc(=O)[nH]c3c2)cc1 | 4500 nM |  | 490 nM |  | 1500 nM |  | 1700 nM | 10% | inhibition at 4 µM [9]: 14%; inhibition at 10 µM [10]: 29% |
| CN(Cc1ccccc1)Cc1ccc(COc2ccc3c(CO)cc(=O)oc3c2)cc1.Cl |  |  |  |  |  |  |  | 0% | Activity (SH-SY5Y [11]): Active; Activity (SH-SY5Y [12]): Active; Papp B→A at 200 ug/ml (MDR1 [13]): 33.8 ×10⁻⁶ cm/s; efflux ratio at 200 ug/ml (MDR1 [14]): 1.77; Papp A→B at 200 ug/ml (MDR1 [15]): 19.1 ×10⁻⁶ cm/s |
| Cc1c(C)c2ccc(OCCCCCNCc3ccccc3)cc2oc1=O | 29 nM | 2200 nM | 940 nM | 390 nM | 300 nM | 500 nM | 1800 nM |  | IC50 (Cholinesterase [16]): 950 nM |
| COc1cc2c(cc1OC)C(=O)C(CC1CCN(Cc3ccccc3)CC1)C2 (configuration not stated) [DONEPEZIL] |  |  |  |  |  |  |  |  | inhibition at 10 µM [17]: 0%; inhibition at 10 µM [18]: 0% |
| Cc1c(C)c2ccc(OCc3ccc(CN(C)Cc4ccccc4)cc3)cc2oc1=O | 53 nM |  | 100 nM | 4300 nM | 450 nM | 1200 nM | 690 nM | 0% | inhibition (Cholinesterase [19]): 46% |
| Cc1c(C)c2ccc(OCCCCCCN(C)Cc3ccccc3)cc2oc1=O | 321 nM | 510 nM | 95 nM | 191 nM | 340 nM | 1700 nM | 670 nM |  | Ratio IC50 (Rattus norvegicus): 0.3; IC50 (Cholinesterase [16]): 950 nM; Ki (Acetylcholinesterase [20]): 80 nM |
| CN(Cc1ccc(COc2ccc3c(CO)cc(=O)oc3c2)cc1)Cc1cccc(Cl)c1 | 24 nM |  | 250 nM | 13000 nM | 330 nM | 240 nM | 630 nM | 0% | inhibition (Cholinesterase [19]): 14% |
